The record followed here is patent publication US8420642B2, “Pyridine derivatives useful as glucokinase activators” (Merck Patent GmbH, priority 2007, dated 2013).

Data set [1] concerns the target T1, glucokinase (GK), human enzyme (Homo sapiens, UniProt P35557).
T1 sequence (P35557 1-465): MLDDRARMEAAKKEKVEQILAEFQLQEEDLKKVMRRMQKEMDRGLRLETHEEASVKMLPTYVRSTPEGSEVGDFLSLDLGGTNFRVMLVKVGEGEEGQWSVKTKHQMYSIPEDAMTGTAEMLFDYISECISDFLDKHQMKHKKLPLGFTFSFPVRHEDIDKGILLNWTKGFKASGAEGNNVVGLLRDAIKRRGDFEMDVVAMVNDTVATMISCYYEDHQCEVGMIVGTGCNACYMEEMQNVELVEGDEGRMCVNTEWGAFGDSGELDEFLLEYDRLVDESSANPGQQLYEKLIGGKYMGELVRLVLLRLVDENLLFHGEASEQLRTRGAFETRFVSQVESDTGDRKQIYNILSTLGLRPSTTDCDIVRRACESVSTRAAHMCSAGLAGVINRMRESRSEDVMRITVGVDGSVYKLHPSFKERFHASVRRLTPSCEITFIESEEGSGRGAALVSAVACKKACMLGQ
The experiment in a line: Glucokinase Activation Screening Assay (coupled enzyme assay with PK/LDH, NADH decline at 340 nm). It counts as biochemical. As to conditions: for fold activation (human): relative to control incubation with 2 mM glucose; for EC50: 2 mM glucose. As for the experimental part:
Glucokinase Activation Screening Assay
GK activity (human or rat enzyme) is measured by an coupled enzyme assay using pyruvate kinase (PK) and lactate dehydrogenase (LDH) as coupling enzymes. GK activity is calculated from the decline in NADH monitored photometrically with a microtiter plate (MTP) reader at 340 nm. For screening purposes, the GK assay is routinely run in a 384-MTP format, in a total volume of 33 μl/well. 10 μl of the ATP-regeneration solution (in HEPES-buffer*, pH 7.0, 6.73 U/ml pyruvate kinase, 6.8 U/ml lactate dehydrogenase) and 10 μl of the glucokinase-/glucose solution (15 μg/ml, 6.6 mM glucose in HEPES-buffer*, pH 7.0; the concentration of the glucose stock-solution was 660 mM in Millipore H2O) were mixed together with 3 μl of a 10% DMSO solution (in HEPES-buffer*, pH 7.0) containing 3.3-fold the amounts of the compounds to achieve final compound concentrations in the range between 1 nM to 30 μM (sometimes 300 μM) in the assay solution (s. below). The solutions were mixed for 5 sec, and after a centrifugation at 243×g for 5 min, the solutions were preincubated for 25 min at room temperature.
The reaction was started by the addition of 10 μl of the NADH-/ATP-solution (4.29 mM NADH, 4.95 mM ATP, in HEPES-buffer*). The MTP was shaken for 5 sec., and then, the absorbance at 340 nm was monitored continuously in a MTP-reader (TECAN Spectro fluor plus) for the next 27 min (with a MTP-cycling time of 199 sec.). The final concentrations of the various components were as follows: 49.5 mM Hepes, pH 7.0, 1.49 mM PEP, 1.3 mM NADH, 49.5 mM KCl, 4.96 mM MgCl2, 1.5 mM Mg-ATP, 1.98 mM DTT, 2.04 U/ml pyruvate kinase, 2.06 U/ml lactate-dehydrogenase, 0.91% DMSO, 0.15 μg/well glucokinase, and test compounds in the range between 1 nM and 300 μM.
The change in the optical density (ΔOD340 nm) in the presence of the compound was expressed relative to the ΔOD340 nm, ctrl of the control incubation (in the presence of 2 mM glucose and 0.91% DMSO), taking into account the optical density of the blank sample (incubation in the absence of 2 mM glucose). For the determination of the half maximal effective concentration (EC50), the %−Ctrl-values were plotted in a semi-logarithmic graph against the conc. of the compound of interest. The data points were fitted to a sigmoid curve function (f(x)=((%−Ctrlmax%−Ctrlmin)/(1−(EC50/x**^n(Hill)))+%−Ctrlmin)) by a non-linear regression analysis.
* Hepes-buffer (50 mM Hepes, pH 7.0, 5 mM MgCl2, 50 mM KCl, 1.5 mM PEP, 0.1% BSA). DTT was added to the Hepes-buffer from a 200× stock solution (in Millipore H2O) freshly each day. The final concentration of DTT in the Hepes-buffer is 2 mM.

Structures are written as SMILES.

The term melting point denotes the temperature, or range, at which the solid turns liquid. As for `Cc1csc(Nc2ccc(Br)cn2)n1` [A1, (5-bromo-pyridine-2-yl)-(4-methyl-thiazole-2-yl)-amine], the melting point was in the range of 241.5 to 242.6 °C. Further, the “fold activation (human)” value in data set [1] is recorded as “D (fold activation: 1.2-5 μM = D)”.

As usually defined, the EC50 is the midpoint of the concentration-response curve. Lower therefore signals higher potency in that assay. As for `BrCc1csc(Nc2ccc(Br)cn2)n1` [A2, (4-bromomethyl-thiazole-2-yl)-(5-bromo-pyridine-2-yl)-amine], in data set [1], the EC50 was in the range of 1 to 10 µM and the “fold activation (human)” value is “D (fold activation: 1.2-5 μM = D)”.

With `Brc1ccc(Nc2nc(Cn3ccnc3)cs2)nc1` [A3, (5-bromo-pyridine-2-yl)-(4-imidazole-1-ylmethyl-thiazole-2-yl)-amine], in data set [1], the EC50 lay within 1 to 10 µM and the “fold activation (human)” value is listed as “D (fold activation: 1.2-5 μM = D)”.

With `CCOC(=O)c1csc(Nc2ccc(Br)cn2)n1` [A4, 2-(5-bromo-pyridine-2-ylamino)-thiazole-4-carboxylic acid ethyl ester], the melting point lay in the range of 299.8 to 300.8 °C. Moreover, the “fold activation (human)” value in data set [1] was “D (fold activation: 1.2-5 μM = D)”.

The compound `CC(=O)OCc1csc(Nc2ccc(Br)cn2)n1` [A5, acetic acid 2-(5-bromo-pyridine-2-ylamino)-thiazole-4-ylmethyl ester] had a melting point of 200.9 to 201.6 °C. In data set [1], the EC50 is 1 to 10 µM and the “fold activation (human)” value was “D (fold activation: 1.2-5 μM = D)”.

For the compound `OCc1csc(Nc2ccc(Br)cn2)n1` [A6, [2-(5-bromo-pyridine-2-ylamino)-thiazole-4-yl]-methanol], the melting point fell in the range of 207 to 209 °C. Besides, the “fold activation (human)” value in data set [1] is “D (fold activation: 1.2-5 μM = D)”.

Take `NCCSCc1csc(Nc2ccc(Br)cn2)n1` [A7, [4-(2-amino-ethylsulfanylmethyl)-thiazole-2-yl]-(5-bromopyridine-2-yl)-amine]: in data set [1], the EC50 is above 10 µM and the “fold activation (human)” value is reported as “D (fold activation: 1.2-5 μM = D)”.

On to `c1ccc(Oc2ccc(Nc3nccs3)nc2)cc1` [A8, (5-phenoxy-pyridine-2-yl)-thiazole-2-yl-amine], for which the melting point was 161.4 to 162.4 °C. In data set [1], the EC50 was above 10 µM and the “fold activation (human)” value is “D (fold activation: 1.2-5 μM = D)”.

`CC(=O)OCc1csc(Nc2ccc(Oc3ccccc3)cn2)n1` [A9, acetic acid 2-(5-phenoxy-pyridine-2-ylamino)-thiazole-4-ylmethyl ester]: the melting point lay in the range of 158.5 to 160.5 °C. Moreover, in data set [1], the EC50 was above 10 µM and the “fold activation (human)” value was “D (fold activation: 1.2-5 μM = D)”.

The compound `OCc1csc(Nc2ccc(Oc3ccccc3)cn2)n1` [A10, [2-(5-phenoxy-pyridine-2-ylamino)-thiazole-4-yl]-methanol] gave a melting point of 130 to 131 °C. In data set [1], the EC50 is 1 to 10 µM and the “fold activation (human)” value is “E (5-10 μM = E)”.

As for `c1ccc(Sc2ccc(Nc3nccs3)nc2)cc1` [A12, (5-phenylsulfanyl-pyridine-2-yl)-thiazole-2-yl-amine], in data set [1], the EC50 is above 10 µM and the “fold activation (human)” value is on record as “D (fold activation: 1.2-5 μM = D)”.

With `[O-][S+](c1ccccc1)c1ccc(Nc2nccs2)nc1` (centres unmarked) [A13, (5-phenylsulfinyl-pyridine-2-yl)-thiazole-2-yl-amine], the “fold activation (human)” value in data set [1] is given as “D (fold activation: 1.2-5 μM = D)”.

On to `O=S(=O)(c1ccccc1)c1ccc(Nc2nccs2)nc1` [A14, (5-phenylsulfonyl-pyridine-2-yl)-thiazole-2-yl-amine], for which, in data set [1], the EC50 is above 10 µM and the “fold activation (human)” value is recorded as “D (fold activation: 1.2-5 μM = D)”.

Compound `COCCOc1cc(Oc2ccccc2)cnc1Nc1nccs1` [A20, [3-(2-methoxy-ethoxy)-5-phenoxy-pyridine-2-yl]-thiazole-2-yl-amine] yielded a melting point of 140.6 to 140.9 °C. In data set [1], the EC50 was 1 to 10 µM and the “fold activation (human)” value is recorded as “E (5-10 μM = E)”.

Regarding `c1ccc(Oc2cnc(Nc3nccs3)c(OC3CCCC3)c2)cc1` [A21, (3-cyclopentyloxy-5-phenoxy-pyridine-2-yl)-thiazole-2-yl-amine], in data set [1], the EC50 was 0.01 to 1 µM and the “fold activation (human)” value was “E (5-10 μM = E)”.

`CCCOc1ccc(Nc2ccn(C)n2)nc1` [A23, (1-methyl-1H-pyrazole-3-yl)-(5-propoxy-pyridine-2-yl)-amine]: in data set [1], the “fold activation (human)” value is listed as “D (fold activation: 1.2-5 μM = D)”.

With `COCC(C)Oc1cc(Oc2ccccc2)cnc1Nc1nccs1` (centres unmarked) [A28, [3-(2-Methoxy-1-methyl-ethoxy)-5-phenoxy-pyridine-2-yl]-thiazole-2-yl-amine], in data set [1], the EC50 was in the range of 1 to 10 µM and the “fold activation (human)” value is “E (5-10 μM = E)”.

Take `c1ccc(Oc2cnc(Nc3nccs3)c(OCC3CCCC3)c2)cc1` [A29, (3-cyclopentylmethoxy-5-phenoxy-pyridine-2-yl)-thiazole-2-yl-amine]: in data set [1], the EC50 was 0.01 to 1 µM and the “fold activation (human)” value is listed as “D (fold activation: 1.2-5 μM = D)”.

Turning to `c1ccc(COc2ccc(Nc3nccs3)nc2)cc1` [A30, (5-benzyloxy-pyridine-2-yl)-thiazole-2-yl-amine], the “fold activation (human)” value in data set [1] is reported as “D (fold activation: 1.2-5 μM = D)”.

In the case of `COCCOc1cc(Oc2cccnc2)cnc1Nc1nccs1` [A31, [3-(2-methoxy-ethoxy)-5-(pyridine-3-yloxy)-pyridine-2-yl]-thiazole-2-yl-amine], the “fold activation (human)” value in data set [1] is given as “E (5-10 μM = E)”.

In the case of `COCCOc1cc(Oc2ccc(S(C)(=O)=O)cc2)cnc1Nc1nccs1` [A32, [5-(4-methanesulfonyl-phenoxy)-3-(2-methoxy-ethoxy)pyridine-2-yl]-thiazole-2-yl-amine], in data set [1], the EC50 was in the range of 1 to 10 µM and the “fold activation (human)” value is listed as “E (5-10 μM = E)”.

Take `CS(=O)(=O)c1ccc(Oc2ccc(Nc3ccccn3)nc2)cc1` [A94]: in data set [1], the “fold activation (human)” value is on record as “E (5-10 μM = E)”.

On to `COCCOc1cc(Oc2ccccc2)cnc1Nc1cnccn1` [A95], for which the “fold activation (human)” value in data set [1] is given as “D (fold activation: 1.2-5 μM = D)”.

`COCCOc1cc(Oc2ccccc2)cnc1Nc1ccccn1` [A96]: the “fold activation (human)” value in data set [1] is recorded as “D (fold activation: 1.2-5 μM = D)”.

In the case of `COCCOc1cc(Oc2ccccc2)cnc1Nc1ccn(C)n1` [A97], in data set [1], the “fold activation (human)” value is on record as “E (5-10 μM = E)”.
